According to ChEMBL document CHEMBL1126190, “3-[4-[1-(6-Fluorobenzo[b]thiophen-3-yl)-4-piperazinyl]butyl]- 2,5,5-trimethyl-4-thiazolidinone: a new atypical antipsychotic agent for the treatment of schizophrenia” (J Med Chem, 1992):

How the values were obtained:
Rattus norvegicus [1] = test: Compound was evaluated for inhibition of apomorphine-induced stereotypy behavior in rats after intraperitoneal administration.; assay type: functional; conditions: ip
Rattus norvegicus [2] = test: Compound was evaluated for intracranial self-stimulation in rat after intraperitoneal administration.; assay type: functional; conditions: ip
[3] = biological target: T1, 5-hydroxytryptamine receptor 1A (Rattus norvegicus, UniProt P19327); test: Compound was evaluated for in vitro binding affinity towards serotonin 5-hydroxytryptamine 1A receptor receptor in rat hippocampus using [3H]8-OH-DPAT as radioligand; assay type: tissue-based
T1 sequence (P19327 whole entry): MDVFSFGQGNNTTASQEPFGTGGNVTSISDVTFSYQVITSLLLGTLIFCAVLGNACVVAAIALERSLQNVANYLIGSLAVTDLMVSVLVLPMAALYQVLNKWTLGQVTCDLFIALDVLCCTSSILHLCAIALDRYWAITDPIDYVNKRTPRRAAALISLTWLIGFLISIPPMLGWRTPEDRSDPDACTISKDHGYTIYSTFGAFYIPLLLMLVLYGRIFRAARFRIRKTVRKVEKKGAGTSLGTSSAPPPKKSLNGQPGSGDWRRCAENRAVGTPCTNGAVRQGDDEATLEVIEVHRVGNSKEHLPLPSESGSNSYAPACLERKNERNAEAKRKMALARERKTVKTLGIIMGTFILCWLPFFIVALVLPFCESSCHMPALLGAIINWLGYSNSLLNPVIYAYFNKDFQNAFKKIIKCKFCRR

Rattus norvegicus [4] = test: Compound was evaluated for pole-climb avoidance in rat after peroral administration.; assay type: functional; conditions: po
Mus musculus [5] = test: Compound was evaluated for inhibition of apomorphine-induced climbing in mouse after peroral administration.; assay type: functional; conditions: po
Rattus norvegicus [6] = test: Compound was evaluated for pole-climb avoidance (escape failures) in rat after peroral administration.; assay type: functional; conditions: po
Mus musculus [7] = test: Compound was evaluated for inhibition of apomorphine-induced climbing in mouse after intraperitoneal administration.; assay type: functional; conditions: ip
D(1A) dopamine receptor = D(1A) dopamine receptor (Rattus norvegicus, UniProt P18901); test: Compound was evaluated for in vitro binding affinity towards Dopamine receptor D1 in striatum using [3H]- SCH 23390 as radioligand; assay type: tissue-based
[8] = biological target: Serotonin 2 (5-HT2) receptor (Rattus norvegicus, UniProt P30994+P08909+P14842); test: Compound was evaluated for in vitro binding affinity towards serotonin 5-hydroxytryptamine 2 receptor in rat cortex using [3H]- spiperone as radioligand

D(1A) dopamine receptor, sequence (P18901 whole entry): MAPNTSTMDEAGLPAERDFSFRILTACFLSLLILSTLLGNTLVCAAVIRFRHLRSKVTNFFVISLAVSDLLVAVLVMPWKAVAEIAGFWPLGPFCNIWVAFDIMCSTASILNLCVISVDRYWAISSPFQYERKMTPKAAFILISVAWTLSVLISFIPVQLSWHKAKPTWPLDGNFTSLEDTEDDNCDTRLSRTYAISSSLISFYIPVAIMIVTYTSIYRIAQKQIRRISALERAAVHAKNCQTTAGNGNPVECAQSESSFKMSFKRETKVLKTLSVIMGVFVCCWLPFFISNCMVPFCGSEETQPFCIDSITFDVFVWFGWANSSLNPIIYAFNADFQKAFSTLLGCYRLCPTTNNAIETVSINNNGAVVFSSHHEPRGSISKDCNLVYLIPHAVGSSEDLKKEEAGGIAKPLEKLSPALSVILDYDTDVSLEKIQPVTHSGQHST

Ki [3] | Ki (D(1A) dopamine receptor) | Ki [8] | SMILES | ED50 (Rattus norvegicus [1]) | ED50 (Rattus norvegicus [2]) | ED50 (Rattus norvegicus [4]) | ED50 (Mus musculus [5]) | ED50 (Rattus norvegicus [6]) | ED50 (Mus musculus [7])
40 nM | 2740 nM | 20 nM | CC1SC(C)(C)C(=O)N1CCCCN1CCN(c2csc3cc(F)ccc23)CC1 (stereo unspecified) | 61.4 mg/kg | 4.7 mg/kg | 5.46 mg/kg | 15.4 mg/kg | > 20 mg/kg | 2.5 mg/kg
 |  |  | CN1CCN(C2=Nc3cc(Cl)ccc3Nc3ccccc32)CC1 [CLOZAPINE] | > 40 mg/kg |  | 12.7 mg/kg |  | 33.1 mg/kg | 
 |  |  | O=C(CCCN1CCC(O)(c2ccc(Cl)cc2)CC1)c1ccc(F)cc1 [HALOPERIDOL] | 0.576 mg/kg | 0.077 mg/kg | 1.1 mg/kg |  | 14.1 mg/kg | 
